Experimental data published in ChEMBL document CHEMBL1126825, “4-Methoxy-2-methyltetrahydropyrans: chiral leukotriene biosynthesis inhibitors, related to ICI D2138, which display enantioselectivity” (J Med Chem, 1993).

Assays:
Mus musculus = species: Mus musculus; test: In vitro inhibition of LTC4 biosynthesis in plasma protein-free cultures of zymosan-stimulated mouse macrophages; format: functional
Homo sapiens = species: Homo sapiens; test: In vitro inhibition of LTB4 biosynthesis in A-23187-stimulated human whole blood; format: functional

| IC50 (Mus musculus) | IC50 (Homo sapiens) | SMILES |
| --- | --- | --- |
| 8 nM | 140 nM | CO[C@]1(c2cc(F)cc(OCc3ccc4c(ccc(=O)n4C)c3)c2)CCO[C@H](C)C1 |
| 9 nM | 670 nM | CO[C@@]1(c2cc(F)cc(OCc3ccc4c(ccc(=O)n4C)c3)c2)CCO[C@H](C)C1 |
| 60 nM | 1760 nM | CO[C@@]1(c2cc(F)cc(OCc3ccc4c(ccc(=O)n4C)c3)c2)CCO[C@@H](C)C1 |
| 0.4 nM | – | CO[C@]1(c2cc(F)cc(OCc3ccc4c(ccc(=O)n4C)c3)c2)CCO[C@@H](C)C1 |
